Measurements as given in ChEMBL document CHEMBL4651402, “Screening of ~5500 FDA-approved drugs and clinical candidates for anti-SARS-CoV-2 activity” (2021).

Tested on: SARS-CoV-2
Experiment: microbe, parasite or virus in culture
Conditions: Severe acute respiratory syndrome coronavirus 2, Vero C1008, 48 h

SMILES	IC50 [µM]	IC50 (read-out: pIC50 (converted)) [µM]
C[N+]1(C)CCC(=C(c2ccccc2)c2ccccc2)CC1	> 20	> 20
[2H][C@]1(O)[C@@H](CO)O[C@@H](n2ccc(N)nc2=O)[C@]1(C)O	> 20	> 20
CCN(CC)CCOCCOC(=O)C1(c2ccccc2)CCCC1 [CARBETAPENTANE]	> 20	> 20
CC1(C)C2=CCC3C(CCC4(C)C3CC[C@]4(C)O)C2(C)Cc2cnoc21 (stereo partly specified)	> 20	> 20
NC(=O)N1c2ccccc2C=Cc2ccccc21 [CARBAMAZEPINE]	> 20	> 20
O=c1oc2ccccc2c(O)c1Cc1c(O)c2ccccc2oc1=O [DICUMAROL]	> 20	> 20
CC(=O)N[C@@H](Cc1c[nH]c2ccccc12)C(N)=O [ACETYLTRYPTOPHANAMIDE]	> 20	> 20
Cc1ccc(S(=O)(=O)NC(=O)NN2CC3CCCC3C2)cc1 (stereo unspecified) [GLICLAZIDE]	> 20	> 20
C=CCC1(CC(C)C)C(=O)NC(=O)NC1=O [BUTALBITAL]	> 20	> 20
CC(=O)Oc1cc2c(s1)CCN(C(C(=O)C1CC1)c1ccccc1F)C2 (stereo unspecified)	> 20	> 20
CC(=O)C1CCC2C3CCC4CC(O)CCC4(C)C3CC(O)C12C (stereo unspecified)	> 20	> 20
Cc1[nH]cnc1CSCCNc1nc(=O)c(Cc2ccc3c(c2)OCO3)c[nH]1 [OXMETIDINE]	> 20	> 20
CC1(O)CCC2C3CCC4=CC(=O)CCC4C3CCC21C (stereo unspecified)	> 20	> 20
Cc1ccccc1-c1cc(N2CCN(C)CC2)ncc1N(C)C(=O)C(C)(C)c1cc(C(F)(F)F)cc(C(F)(F)F)c1 [NETUPITANT]	> 20	> 20
Cc1nc(-c2ccc(C(F)(F)F)cc2)sc1C(=O)NCc1ccc(OC(C)(C)C(=O)O)cc1 [GW590735]	> 20	> 20
CCOC(=O)Cc1ccc(-c2ccccc2)cc1	> 20	> 20
CN(C)CCc1c[nH]c2ccc(Cn3cncn3)cc12 [RIZATRIPTAN]	> 20	> 20
CCCCCCCCN=c1ccn(CCCCCCCCCCn2ccc(=NCCCCCCCC)cc2)cc1 [OCTENIDINE]	> 20	> 20
C/C(=C(\CCOP(=O)(O)O)SC(=O)c1ccccc1)N(C=O)Cc1cnc(C)nc1N [BENFOTIAMINE]	> 20	> 20
COc1cc2nccc(Oc3ccc(NC(=O)C4(C(=O)Nc5ccc(F)cc5)CC4)cc3)c2cc1OC [CABOZANTINIB]	> 20	> 20
O=C(Nc1ccc(Cl)cc1)Nc1ccc(Cl)c(Cl)c1 [TRICLOCARBAN]	> 20	> 20

SMILES	IC50 [µM]	IC50 (read-out: pIC50 (converted)) [µM]
C#C[C@]1(O)CC[C@H]2[C@@H]3CC[C@H]4Cc5nn(S(C)(=O)=O)cc5C[C@]4(C)[C@H]3CC[C@@]21C [ZANOTERONE]	> 20	> 20
CCC(=O)OCC(=O)[C@@]1(OC(=O)CC)[C@H](C)C[C@H]2[C@H]3[C@H]([C@@H](O)C[C@@]21C)[C@@]1(C)C=CC(=O)C=C1C[C@H]3Cl [ALCLOMETASONE DIPROPIONATE]	> 20	> 20
CCc1cnn2c(NCc3ccc[n+]([O-])c3)cc(N3CCCC[C@H]3CCO)nc12 [DINACICLIB]	> 20	> 20
CCOC(=O)C1(c2ccccc2)CCN(CCCNc2ccccc2)CC1 [PIMINODINE]	> 20	> 20
O=C(/C=C/c1ccc(O)cc1)c1ccc(O)cc1O [ISOLIQUIRITIGENIN]	> 20	> 20
CCc1occc(=O)c1O [E637]	> 20	> 20
CN1CCN(C2=Nc3cc(Cl)ccc3Nc3ccccc32)CC1 [CLOZAPINE]	> 20	> 20
Cc1cc(CC(=O)O)n(C)c1[14C](=O)c1ccc(Cl)cc1	> 20	> 20
CC(=O)CC(c1ccccc1)c1c(O)c2ccccc2oc1=O (stereo unspecified) [WARFARIN]	> 20	> 20
CC1CCc2cc(F)cc3c(=O)c(C(=O)O)cn1c23 (stereo unspecified) [FLUMEQUINE]	> 20	> 20
COc1cc(OC)c(C(=O)CCCN2CCCC2)c(OC)c1 [BUFLOMEDIL]	> 20	> 20
CN1CCC2=C[C@H](O)[C@H]3OC(=O)c4cc5c(cc4[C@H]3[C@@H]21)OCO5	> 20	> 20
OC(c1ccccc1)(c1ccccc1)C1CN2CCC1CC2 (stereo unspecified) [QUIFENADINE]	> 20	> 20
CN(C)CCCn1c(=O)c2ccccc2c2ccccc21 [FANTRIDONE]	> 20	> 20
CC(/C=C1\SC(=S)N(CC(=O)O)C1=O)=C\c1ccccc1	> 20	> 20
Clc1ccc(C(Cn2ccnc2)OCc2c(Cl)cccc2Cl)c(Cl)c1 (stereo unspecified) [ISOCONAZOLE]	> 20	> 20
C=CCC1(C2C=CCCC2)C(=O)NC(=S)NC1=O (stereo unspecified) [THIALBARBITAL]	> 20	> 20
O=C1C=CC(=O)c2c1ccc1c2ccc2ccccc21	> 20	> 20
C1=CN2CC(c3cccs3)N=C2S1 (stereo unspecified)	> 20	> 20
CC(C)CC(NC(=O)C(Cc1ccccc1)NC(=O)CNC(=O)[C@H](C)NC(=O)C(N)Cc1ccc(O)cc1)C(=O)N[C@H](CCCNC(=N)N)C(=O)O (stereo partly specified)	> 20	> 20
O=C(NCCN1CCN(c2ncccn2)CC1)C12CC3CC(CC(C3)C1)C2 [ADATANSERIN]	> 20	> 20

SMILES	IC50 [µM]	IC50 (read-out: pIC50 (converted)) [µM]
CCC(=O)N(c1ccc(Cl)c(Cl)c1)[C@@H]1CCC[C@H]1N(C)C	> 20	> 20
CCOC(=O)[C@H](CCc1ccccc1)N[C@H]1CS[C@H](c2cccs2)CN(CC(=O)O)C1=O [TEMOCAPRIL]	> 20	> 20
CCC[C@@H]1C[C@@H](C(=O)N[C@@H]([C@H]2O[C@H](SC)[C@H](O)[C@@H](O)[C@H]2O)[C@@H](C)O)N(C)C1 [LINCOMYCIN]	> 20	> 20
C1CN1c1nc(N2CC2)nc(N2CC2)n1	> 20	> 20
NC(CO)Cc1ccccc1 (stereo unspecified)	> 20	> 20
N[C@@H]1CONC1=O [CYCLOSERINE]	> 20	> 20
COc1c2c(cc3c1OCO3)CC[N+](C)=C2 [COTARNINE]	> 20	> 20
COc1ccc(C2C(=O)c3ccccc3C2=O)cc1 [ANISINDIONE]	> 20	> 20
CC(C1=C(CCN(C)C)Cc2ccccc21)c1ccccn1 (stereo unspecified)	> 20	> 20
CO[C@H]1C[C@@H]2CC[C@@H](C)[C@@](O)(O2)C(=O)C(=O)N2CCCC[C@H]2C(=O)O[C@H]([C@H](C)C[C@@H]2CC[C@@H](O)[C@H](OC)C2)CC(=O)[C@H](C)/C=C(\C)[C@@H](O)[C@@H](OC)C(=O)[C@H](C)C[C@H](C)/C=C/C=C/C=C/1C [SIROLIMUS]	> 20	> 20
CCCC(=O)O [BUTYRIC ACID]	> 20	> 20
CC(C)CC(N(C)C)C1(c2ccc(Cl)cc2)CCC1 (stereo unspecified) [SIBUTRAMINE]	> 20	> 20
CCOc1cc2cc(C(=O)O)sc2cc1OCC [TIBENELAST]	> 20	> 20
CN(C(=O)CCCOc1ccc2[nH]c(=O)ccc2c1)C1CCCCC1 [CILOSTAMIDE]	> 20	> 20
O=C(c1cccnc1)N1CCOCC1 [NICOPHOLINE]	> 20	> 20
OC[C@H]1O[C@@H](S[C@@H]2O[C@H](CO)[C@H](O)[C@H](n3cc(-c4cccc(F)c4)nn3)[C@H]2O)[C@H](O)[C@@H](n2cc(-c3cccc(F)c3)nn2)[C@H]1O [OLITIGALTIN]	> 20	> 20
COc1ccc(C2CNC(=O)NC2)cc1O[C@@H]1C[C@H]2CC[C@@H]1C2	> 20	> 20
C[C@]12CC[C@@H]3c4ccc(O)cc4CC[C@H]3[C@@H]1CCC2=O [ESTRONE]	> 20	> 20
Cc1cc(-c2ccccc2)nnc1NCCN1CCOCC1 [MINAPRINE]	> 20	> 20
CC12CCC3c4ccc(OC(=O)c5ccccc5)cc4CCC3C1CCC2O (stereo unspecified)	> 20	> 20
Cc1nc(C(=O)NCC(=O)O)c(O)c2ccc(Oc3ccccc3)cc12 [ROXADUSTAT]	> 20	> 20
